Experimental data taken from patent publication US20070009956A1 (Council of Scientific and Industrial Research, priority 2003, published 2007).
Substitutions are numbered along the chain they refer to. “Also recorded” adds a separate entry of the source. Counter-ions that a name gives are not always drawn.

What was measured:
α-crystallin [1] = target: T1, α-crystallin (Bos taurus, UniProt P02470+P02510); test: Circular dichroism spectra; parameters: species or system calf
T1 construct: α-Crystallin was purified from calf eye lenses previously described (24); from tissue; host or cells: calf eye lenses
T1 sequence (P02470 1-173): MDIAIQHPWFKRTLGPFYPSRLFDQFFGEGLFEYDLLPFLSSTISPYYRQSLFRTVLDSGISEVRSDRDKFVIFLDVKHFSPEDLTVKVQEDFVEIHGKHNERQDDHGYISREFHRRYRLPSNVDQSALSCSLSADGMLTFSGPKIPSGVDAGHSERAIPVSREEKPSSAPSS
T1 sequence (P02510 1-175): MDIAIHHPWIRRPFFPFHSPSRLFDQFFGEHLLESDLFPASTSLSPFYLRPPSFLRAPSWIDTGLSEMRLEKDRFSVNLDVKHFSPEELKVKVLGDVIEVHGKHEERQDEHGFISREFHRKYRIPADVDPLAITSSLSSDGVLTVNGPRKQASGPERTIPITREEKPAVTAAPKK
Protocol: Circular dichroism spectra were recorded using a Jasco J-715 Spectropolarimeter. All spectra are the average of 4 accumulations.

R120G αB-crystallin = target: T2, R120G αB-crystallin (Homo sapiens, UniProt P02511, R120G); assay type: biochemical; details: 37° C., 0.5:1 ratio to insulin, 300 mM Arg.HCl; negative protection without
T2 sequence (P02511 1-175 R120G): T1 sequence (P02510 1-175) with A40T, I61F, R120G, A132T, A152V
Protocol: (§1) All chaperone assays were carried out in 10 mM phosphate buffer. pH 7.4, containing 100 mM NaCl (Buffer A). […] Insulin (0.2 mg/ml) was then added and reduction of insulin was initiated by adding 20 ρL of 1 M DTT to 1.2 ml of the sample. The extent of aggregation of insulin was measured as a function of time by monitoring 90° scattering at 465 nm using a Hitachi F-4000 fluorescence spectrophotometer. The excitation and emission band passes were set at 3 nm.

α-crystallin [2] = target: T1, α-crystallin; test: Glycerol gradient sedimentation; parameters: species or system calf
Protocol: Glycerol gradient centrifugation was carried out essentially as described by Lambert et al. (43). α-Crystallin, α-A- or α-B-crystallin (2 mg/ml) was incubated in 50 mM Tris HCl buffer (pH 7.4) containing 100 mM NaCl, 1 mM EDTA alone or in the presence of 300 mM Arg.HCl for 2 hours at 37° C. The samples (0.5 ml) were loaded on top of a 12 ml linear grddient of glycerol (10-40%) made in 50 mM Tris-HCl buffer, pH 7.4, containing 100 mM NaCl and 1 mM EDTA. Arg.HCl-treated α-crystllin samples were run in the gradient also containing 300 mM Arg.HCl. The tubes were centriflged for 18 hours at 30000 rpm in a Beckman SW41 rotor at 4° C. Fractions (0.3 ml) were withdrawn from the top using a Haake-Buchler Auto Densi-Flowt HC gradient former/remover and optical density at 280 nm of the fractions were measured using a Shimadzu W-1601 spectrophotometer. To estimate the molecular masses of the α-crystallin samples, proteins with defined molecular masses such as thyroglobulin (669 kDa), catalase (240 kDa) and aldolase (158 kDa) were used.

[3] = target: T3, calf eye lens α-crystallin (Bos taurus, UniProt P02470+P02510); test: DTT-induced aggregation of insulin, chaperone-like activity of α-crystallin; details: for protection offered by α-crystallin: 25° C., α-crystallin to insulin 1:1 (w/w); for effect on the chaperone-like activity of α-crystallin: α-crystallin 0.1 mg/ml, insulin 0.2 mg/ml; for percent protection offered by α-crystallin: 36% in the absence of Lys.HCl
T3 sequence (P02470 1-173): T1 sequence (P02470 1-173)
T3 sequence (P02510 1-175): T1 sequence (P02510 1-175)
Protocol: as §1

insulin = test: DTT-induced aggregation of insulin without α-crystallin; assay type: biochemical; details: 37° C., no α-crystallin
Protocol: as §1

[4] = target: T4, recombinant human αB-crystallin (Homo sapiens, UniProt P02511); test: DTT-induced aggregation of insulin, chaperone-like activity of αB-crystallin; assay type: biochemical; details: 37° C., 1:4 (w/w) to insulin
T4 construct: made in house; host or cells: Escherichia coli
T4 sequence (P02511 1-175): T1 sequence (P02510 1-175) with A40T, I61F, A132T, A152V
Protocol: as §1

R116C αA-crystallin = target: T5, R116C αA-crystallin (Homo sapiens, UniProt P02489, R116C); assay type: biochemical; details: 500 mM, data not shown
T5 sequence (P02489 1-173 R116C): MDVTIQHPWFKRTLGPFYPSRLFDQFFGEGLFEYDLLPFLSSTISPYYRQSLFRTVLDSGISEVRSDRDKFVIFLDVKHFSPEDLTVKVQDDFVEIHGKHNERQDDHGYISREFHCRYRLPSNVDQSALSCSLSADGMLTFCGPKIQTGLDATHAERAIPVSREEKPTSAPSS

α-crystallin [5] = target: T1, α-crystallin; test: ANS binding fluorescence; parameters: species or system calf; details: 37° C., 100 mM Arg.HCl
Protocol: To study the binding of the hydrophobic probe, ANS, to α-crystallin, 12 uL of 10 mM methanolic solution of ANS was added to 1.2 ml of a 0.5 mg/ml solution of α-crystallin in Buffer A alone or in the buffer containing the required concentrations of Arg.HCl. The samples were excited at 365 nm and emission spectra recorded from 400-600 nm at 37° C. […] All spectra were corrected for the respective blanks. Spectra were recorded in the corrected spectrum mode.

α-crystallin [6] = target: T1, α-crystallin; test: Intrinsic tryptophan fluorescence; parameters: species or system calf; details: 37° C., in the presence of Arg.HCl
Protocol: Fluorescence spectra were recorded using a Hitachi F-4000 Fluorescence Spectrophotometerequipped with a thermostated cuvette holder. All the studies were performed at 37° C. All spectra were recorded in the corrected spectrum mode. The nirinsic tryptophan fluorescence spectra of α-crystllin (0.2 mg/ml) in Buffer A alone or in the buffer containing the required concentrations of Arg.HCl were recorded by exciting the sample at 295 nm with the excitation and emission band passes set at 3 nm.

[7] = target: T6, recombinant human αA-crystallin (Homo sapiens, UniProt P02489); test: DTT-induced aggregation of insulin, chaperone-like activity of αA-crystallin; assay type: biochemical; details: 37° C., 1:2 (w/w) to insulin
T6 construct: made in house; host or cells: Escherichia coli
T6 sequence (P02489 1-173): T5 sequence (P02489 1-173 R116C) with C116R
Protocol: as §1

α-crystallin [8] = target: T1, α-crystallin; test: Thermally induced aggregation of ξ-crystallin at 43° C., chaperone activity of α-crystallin; assay type: biochemical, calf; details: 1:4 (w/w) α- to ξ-crystallin, preincubation with 100 mM Arg.HCl, 53% without
Protocol: Chaperone activity measurement of α-crystallin towards the thermal aggregation of ε-crystallin was performed as described in our earlier study (25). Buffer A either in the absence or in the presence of α-crystallin (0.025 mg/ml) and required concentrations of Arg.HCl was incubated at 43° C. for 3 min in the thermostated cuvette holder of the fluorescence spectrophotometer. ε-Crystallin was then added to a final concentration of 0.1 mg/mL The extent of aggregation was monitored as a function of time by measring the scalr of 465 nm light as descnbed above, […]

α-crystallin [9] = target: T7, α-crystallin (Homo sapiens, UniProt P02489+P02511); details: 0.8-1.0 M Gdn.HCl; cited from earlier work
T7 sequence (P02489 1-173): T5 sequence (P02489 1-173 R116C) with C116R
T7 sequence (P02511 1-175): T1 sequence (P02510 1-175) with A40T, I61F, A132T, A152V

Hsp 16.3 = Hsp 16.3 (Mycobacterium tuberculosis, UniProt P9WMK1); details: Gdn.HCl-induced perturbation of structure; cited from earlier work
diabetic rats = details: rat, in vivo; cited from earlier work
Shumiya cataract rats = details: fed orally; cited from earlier work

Chain of Hsp 16.3 (P9WMK1 whole entry): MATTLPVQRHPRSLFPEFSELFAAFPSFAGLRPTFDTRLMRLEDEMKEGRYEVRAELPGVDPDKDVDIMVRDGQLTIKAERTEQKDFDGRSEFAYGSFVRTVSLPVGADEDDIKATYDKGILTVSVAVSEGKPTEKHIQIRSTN

## Cl.N=C(N)NCCCC(N)C(=O)O (racemic) [DL-Arg.HCl, DLarginine hydrochloride]
α-crystallin [1]; 37° C., DL-Arg.HCl
  far-UV CD spectra, secondary structure of α-crystallin: is not altered

## Cl.N=C(N)NCCC[C@H](N)C(=O)O [Arg.HCl, Arginine hydrochloride]
R120G αB-crystallin
  extent of protection by R120G αB-crystallin: ~75%
α-crystallin [1]; 37° C., 100, 200, 300 mM Arg.HCl, region 270-290 nm
  near-UV CD spectra of α-crystallin: subtle conformational changes at the tertiary structural level
α-crystallin [2]; 300 mM Arg.HCl, 8.75 in the absence
  half-width of the sedimentation profile of α-crystallin: 6.25 x-axis units
α-crystallin [2]; 300 mM Arg.HCl, ~700 kDa in the absence
  molecular mass of α-crystallin: ~360 kDa
[3]; 100 mM Arg.HCl, approximately 13% without
  protection offered by α-crystallin: 28%
[3]; 300 mM Arg.HCl
  protection offered by α-crystallin: almost completely prevented
[3]; 37° C., 1:2 (w/w) α-crystallin:insulin, 200 mM Arg.HCl, ~36% without additive
  prevention of aggregation of insulin by α-crystallin: completely
[3]; 37° C.
  effect on the chaperone-like activity of α-crystallin: comparable
insulin
  aggregation of insulin, additive alone: significantly increased aggregation
[4]
  effect on the chaperone-like activity of αB-crystallin: enhanced the activity
R116C αA-crystallin
  effect on the activity of R116C αA-crystallin: did not enhance
α-crystallin [5]
  increase in the fluorescence intensity of ANS at the emission maximum: ~38%
α-crystallin [6]
  intrinsic tryptophan fluorescence spectrum of α-crystallin: did not change considerably
[7]
  effect on the chaperone-like activity of αA-crystallin: enhanced the activity
α-crystallin [8]
  protective ability of α-crystallin against aggregation of ξ-crystallin: ~81%

## N=C(N)N [Gdn.HCl, guanidine hydrochloride]
α-crystallin [9]
  chaperone-like activity of α-crystallin: enhancement in its chaperone-like activity
[3]; 37° C., hydrochloride
  effect on the chaperone-like activity of α-crystallin: comparable
Hsp 16.3
  chaperone-like activity of Hsp 16.3: enhanced

## Cl.NCCCC[C@H](N)C(=O)O [Lys.HCl, Lysine hydrochloride]
α-crystallin [1]; data not shown
  near-UV CD spectrum of α-crystallin in the presence of Lys.HCl: change in the near-UV CD spectrum
α-crystallin [2]; data not shown
  size of α-crystallin in the presence of Lys.HCl: change in the near-UV CD spectrum and size
[3]; 37° C., 100 mM Lys.HCl
  percent protection offered by α-crystallin: 17%
[3]; 37° C., 300 mM Lys.HCl
  percent protection offered by α-crystallin: about 8%
[3]; 37° C., hydrochloride
  effect on the chaperone-like activity of α-crystallin: did not enhance; also recorded: decreased the activity

## N=C(N)NN [aminoguanidine]
Diabetic rats
  cataract formation: inhibit cataract formation
Shumiya cataract rats
  opacification of the lens: inhibited the opacification of the lens
